{
  "source": "paper PMC8400941",
  "about": "“Preclinical Toxicity and Safety of MM-129—First-in-Class BTK/PD-L1 Inhibitor as a Potential Candidate against Colon Cancer” (Pharmaceutics, 2021)",
  "origin": "cited, not measured here",
  "key": {"patients": {"test_system": "patients", "details": "chemotherapy regimens used in CRC; cited from earlier work"}, "[1]": {"set-up": "method as in PMID 24079553", "details": "cited from earlier work"}, "zebrafish embryos/larvae": {"test_system": "zebrafish embryos/larvae", "details": "5 μM; cited from earlier work"}, "BFU-E growth": {"test_system": "BFU-E growth", "set-up": "method as in PMID 17318617", "details": "multiple administration, 350 mg/kg/day, transient; cited from earlier work"}},
  "data": [
    {"smiles": "O=c1[nH]cc(F)c(=O)[nH]1", "note": "[5-FU, 5-fluorouracil]", "values": [
      {"measurement": "patients with hepatotoxicity", "setting": "patients", "result": "up to 47%"}
    ]},
    {"smiles": "CC[C@H](CO)Nc1nc(NCc2ccc(-c3ccccn3)cc2)c2ncn(C(C)C)c2n1", "note": "[CR8]", "values": [
      {"measurement": "elimination half-life", "setting": "[1]", "result": "about 3 h"}
    ]},
    {"smiles": "CC[C@H](CO)Nc1nc(NCc2ccccc2)c2ncn(C(C)C)c2n1", "note": "[seliciclib]", "values": [
      {"measurement": "embryos with absence of swimming activity, lack of heartbeat and tail blood flow", "setting": "zebrafish embryos/larvae", "result": 57, "unit": "%"},
      {"measurement": "larvae with curved body", "setting": "zebrafish embryos/larvae", "result": 50, "unit": "%"},
      {"measurement": "larvae with edema (both mild and severe)", "setting": "zebrafish embryos/larvae", "result": 82, "unit": "%"},
      {"measurement": "BFU-E growth, of the controls", "setting": "BFU-E growth", "result": "less than 50%"}
    ]}
  ]
}
